Patent US9737520B2, “Aclidinium for use in improving the quality of sleep in respiratory patients” (Almirall, S.A., priority 2011, dated 2017)

Tests used:
[1] = test system: patients with moderate-to-severe COPD; experiment: Phase IIa randomised, double-blind, double-dummy, crossover trial; sleep difficulties score on patient diary card (Example 3); assay type: in vivo, human; settings: 15 days; for average score (+/-SEM), change in sleep difficulties score with respect to baseline: aclidinium 400 μg BID, tiotropium 18 μg QD, score 0-4
Method: In a Phase IIa randomised, double-blind, double-dummy, crossover trial, patients with moderate-to-severe COPD received inhaled aclidinium 400 μg BID, tiotropium 18 μg QD and placebo for 15 days, with a 9-15 day washout between treatment periods.
The incidence of sleep difficulties was recorded daily on a patient diary card. As in Example 1, the scores ranged from 0 for none to 1-4 for increasing severity of the sleep difficulties. The change in the score produced by each treatment with respect to the baseline was then measured.

[2] = to two inactive metabolites; cited from earlier work
[3] = test system: respiratory patients; settings: administration in the evening versus only in the morning; cited from earlier work

Row | Structure (SMILES) | average score (+/-SEM), change in sleep difficulties score with respect to baseline [1] | hydrolysis in human plasma [2] | statistical difference of the sleep difficulties score with placebo ([1]; aclidinium 400 μg BID (p<0.05), tiotropium 18 μg QD (p>0.05)) | bronchodilation during the night [3]
1 | O=C(O[C@H]1C[N+]2(CCCOc3ccccc3)CCC1CC2)C(O)(c1cccs1)c1cccs1 [aclidinium, 3(R)-(2-hydroxy-2,2-dithien-2-ylacetoxy)-1-(3-phenoxypropyl)-1-azoniabicyclo[2.2.2]octane] | −0.123 (0.089) | rapidly hydrolysed |  | 
2 | C[N+]1(C)[C@@H]2C[C@@H](OC(=O)C(O)(c3cccs3)c3cccs3)C[C@H]1[C@@H]1O[C@@H]12 [tiotropium] | −0.011 (0.091) |  | no statistically significant difference | does not produce more bronchodilation during the night
